From PubChem BioAssay (NCI) come the findings set out here.

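Results reflect a 48-hour exposure of cells in 96-well plates to compound at five concentrations. TGI: concentration producing complete growth inhibition.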 Bounds are passed on as bounds.

Some test systems named below: 786-0 renal; ACHN renal; EKVX NSCLC; HCT-116 colon; HOP-62 NSCLC; K-562 leukemia; MALME-3M melanoma; SF-539 CNS; SK-MEL-5 melanoma; SR leukemia; SW-620 colon; TK-10 renal; UACC-257 melanoma; UACC-62 melanoma; HS 578T breast; NCI/ADR-RES ovarian; PC-3 prostate; MDA-MB-231 breast; BT-549 breast.
What all share (experiment): NCI anticancer screen, dose series, 48 h

`Cc1ccc(C2(C)NC(=S)N(NC(N)=S)C2=S)cc1` (stereo unspecified): the TGI with 786-0 renal, in the assay on ACHN renal, in the assay on EKVX NSCLC, with HCT-116 colon, in the assay with HOP-62 NSCLC and with K-562 leukemia was greater than 100 µM in each case. Also, the TGI in the assay on MALME-3M melanoma, with SF-539 CNS, in the assay on SK-MEL-5 melanoma, in the assay on SR leukemia, in the assay with SW-620 colon and in the assay on TK-10 renal was greater than 100 µM throughout. Further, the TGI in the assay on UACC-257 melanoma and with UACC-62 melanoma was greater than 100 µM in each case.
As to `CN(C)C1(C(=O)O)CC1`, the TGI in the assay with 786-0 renal, with ACHN renal, in the assay with EKVX NSCLC, with HCT-116 colon, with HOP-62 NSCLC and in the assay with HS 578T breast was greater than 100 µM each time. Also, the TGI in the assay with K-562 leukemia, in the assay with MALME-3M melanoma, in the assay on NCI/ADR-RES ovarian, with PC-3 prostate, with SF-539 CNS and in the assay with SK-MEL-5 melanoma was greater than 100 µM in each case. The TGI in the assay with SR leukemia, in the assay with SW-620 colon, in the assay on TK-10 renal and with UACC-257 melanoma was greater than 100 µM throughout.
With `OC(c1ccsc1)c1cc2ccccc2s1` (stereo unspecified), the TGI with 786-0 renal, in the assay on ACHN renal, in the assay with EKVX NSCLC, in the assay on HCT-116 colon, with HOP-62 NSCLC and with HS 578T breast was greater than 10 µM each time. In addition, the TGI in the assay on K-562 leukemia, in the assay on MDA-MB-231 breast, in the assay with NCI/ADR-RES ovarian, in the assay on PC-3 prostate, in the assay on SF-539 CNS and in the assay on SK-MEL-5 melanoma was greater than 10 µM each time. Further, the TGI with SR leukemia, with SW-620 colon, in the assay with TK-10 renal, in the assay on UACC-257 melanoma and in the assay with UACC-62 melanoma was greater than 10 µM throughout.
On to `CC(=O)c1ccc(N2CCN(c3c(O)c4c(c(O)c3Cl)C(=O)C=CC4=O)CC2)cc1`, for which the TGI in the assay on 786-0 renal stood at 27.2 µM; in the assay on EKVX NSCLC, 46.7 µM; in the assay on HCT-116 colon, 11.9 µM; in the assay on HOP-62 NSCLC it was 21 µM; in the assay with K-562 leukemia it was 7.1 µM; in the assay on MALME-3M melanoma, 23.5 µM. For the same molecule, the TGI with MDA-MB-231 breast stood at 5.5 µM; with NCI/ADR-RES ovarian, 88.5 µM; in the assay with PC-3 prostate, 19.1 µM; in the assay with SF-539 CNS, 30.2 µM; in the assay with SK-MEL-5 melanoma, 20.3 µM; with SR leukemia, 8.33 µM. The TGI in the assay on SW-620 colon came to 12.7 µM; in the assay on UACC-257 melanoma, 24.1 µM; in the assay with UACC-62 melanoma it was 7.37 µM.
For `C/C(O)=C(/C=N\C(=S)Nc1ccc(Cl)c(Cl)c1)C(=O)Nc1ccccc1C`, the TGI in the assay with 786-0 renal, in the assay on ACHN renal, in the assay with BT-549 breast, with EKVX NSCLC, in the assay on HCT-116 colon and in the assay on HOP-62 NSCLC was greater than 100 µM in each case. The TGI was greater than 100 µM in the assay on MDA-MB-231 breast; 61.1 µM with NCI/ADR-RES ovarian; greater than 100 µM with SF-539 CNS; 44 µM with SK-MEL-5 melanoma; greater than 100 µM in the assay on SW-620 colon; greater than 100 µM with TK-10 renal. For the same molecule, the TGI is greater than 100 µM in the assay on UACC-257 melanoma and 49.8 µM in the assay on UACC-62 melanoma.
With `CCOC(=O)C1=C(OS(=O)(=O)C(F)(F)F)CCCC1`, the TGI in the assay on 786-0 renal, in the assay with ACHN renal, in the assay with EKVX NSCLC, in the assay with HOP-62 NSCLC, in the assay with HS 578T breast and in the assay on K-562 leukemia was greater than 100 µM throughout. The TGI in the assay with MALME-3M melanoma, in the assay with MDA-MB-231 breast, in the assay with NCI/ADR-RES ovarian, in the assay on PC-3 prostate, with SF-539 CNS and with SK-MEL-5 melanoma was greater than 100 µM in each case. Also, the TGI in the assay with SR leukemia, with SW-620 colon, in the assay on TK-10 renal, in the assay with UACC-257 melanoma and in the assay with UACC-62 melanoma was greater than 100 µM each time.
In the case of `CNc1nnnn1C1OC(CO)C(O)C1O` (stereo unspecified), the TGI in the assay on 786-0 renal, in the assay with ACHN renal, with EKVX NSCLC, in the assay on HCT-116 colon, in the assay with HOP-62 NSCLC and in the assay with K-562 leukemia was greater than 100 µM throughout. Also, the TGI with MALME-3M melanoma, in the assay on SF-539 CNS, with SK-MEL-5 melanoma, in the assay on SW-620 colon, with TK-10 renal and in the assay with UACC-257 melanoma was greater than 100 µM in each case. The molecule further returned a TGI in the assay on UACC-62 melanoma greater than 100 µM.
Regarding `C=CC1(c2ccc3ccccc3c2)OCC(CC)(CC)CO1`, the TGI amounted to 50.9 µM in the assay on 786-0 renal; 38.8 µM in the assay on ACHN renal; 43.2 µM in the assay on HCT-116 colon; 84.4 µM in the assay on HOP-62 NSCLC; 41.6 µM in the assay on HS 578T breast; 48.1 µM with K-562 leukemia. Besides, the TGI with MALME-3M melanoma amounted to 49.1 µM; with MDA-MB-231 breast, 33.9 µM; with NCI/ADR-RES ovarian, 66.4 µM; in the assay on PC-3 prostate it was 65.5 µM; in the assay on SF-539 CNS, 33.5 µM; in the assay with SK-MEL-5 melanoma, 34 µM. In addition, the TGI in the assay on SW-620 colon is 43.4 µM; in the assay on TK-10 renal it was 89.5 µM; in the assay with UACC-257 melanoma, 64.2 µM; with UACC-62 melanoma it was 46 µM.
As to `C=C1C(=O)OC2C[C@H](C)C3CC(=O)C(C)=C3CC12` (stereo partly specified), the TGI with 786-0 renal was 26.1 µM; in the assay with ACHN renal it was 25.5 µM; with EKVX NSCLC it was 32.8 µM; with HCT-116 colon, 20.4 µM; with HOP-62 NSCLC it was greater than 54.4 µM; with K-562 leukemia it was 23.1 µM. Besides, the TGI in the assay with MALME-3M melanoma came out at 25.3 µM; in the assay with SF-539 CNS, 35 µM; in the assay on SK-MEL-5 melanoma, 33.3 µM; with SR leukemia, 22.3 µM; in the assay with SW-620 colon, 18.7 µM; with TK-10 renal, 30.5 µM. For the same molecule, the values for the TGI in the assay with UACC-257 melanoma and in the assay with UACC-62 melanoma were 28.6 µM and 25.9 µM, respectively.
